Tests used:
Type in all cases: cell-based
[1] = tested on: Wnt activity (Sp5-Luc reporter, TCF/LEF binding sites) in SW480 colon carcinoma cells; assay: Screening assay for Wnt activity: Sp5-Luc reporter gene assay in stably transduced SW480 cells; conditions: Homo sapiens; for EC50: overnight incubation; for inhibition at 10 µM: read-out: percent inhibition at 10 μM (given for EC50 of >10 μM)
How it was run: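 Luminescence (BrightGlo) was normalised to DMSO-only wells and fitted with a four-parameter variable-slope model for EC50; beyond 10 μM, % inhibition at 10 μM is given. Stable Sp5-Luc SW480 reporter cells, 4,000/well in 1% FBS, were exposed overnight at 37 °C to compounds, top 10 μM, 1:3 dilutions, 0.1% DMSO.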

SW480 colon cancer cells = assay: Cell viability assay (CellTiter-Blue) in SW480 colon cancer cells; conditions: Homo sapiens, 96 h, four days; for inhibition at 10 µM: read-out: percent inhibition at 10 μM (given for EC50 of >10 μM); for EC50: CellTiter-Blue
How it was run: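 Approximately 2×10^3 SW480 cells per well are seeded with compound (8 points, threefold steps, top 10 μM) and incubated four days at 37 °C. CellTiter-Blue is then added for about 3 h and fluorescence read. Non-linear regression gives EC50; for values beyond 10 μM, percent inhibition at that concentration is listed.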

IL-6 (THP-1 cells) = assay: Inhibition of IL-6 in LPS-stimulated THP-1 human monocyte cells (HTRF); conditions: for inhibition at 10 µM: IL-6 assay in LPS-stimulated THP-1 cells, given only where EC50 >10 μM, meaning not given (top concentration 10 μM), read-out: percentage given in parentheses after EC50 >10; for EC50: inhibition of IL-6 in LPS-stimulated THP-1 cells, HTRF, 10-point dose-response starting from 10 μM
How it was run: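 THP-1 cells, serum-reduced (1% FBS) for 24 h, were preincubated with compound (10-point 1:3 series from 10 μM, 0.1% DMSO) for 2 h, then stimulated with 500 ng/mL LPS for 22 h at 37° C. IL-6 was read by HTRF (665/620 nm ratio) and normalized to DMSO. EC50 from four-parameter fit; % inhibition at 10 μM given if EC50 >10 μM.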

| SMILES | EC50 [1] | EC50 (SW480 colon cancer cells) | EC50 (IL-6 (THP-1 cells)) | inhibition at 10 µM (SW480 colon cancer cells) | inhibition at 10 µM (IL-6 (THP-1 cells)) | inhibition at 10 µM [1] |
| --- | --- | --- | --- | --- | --- | --- |
| CS(=O)(=O)NCc1cc(F)cc(-c2cccc3[nH]c(-c4n[nH]c5cnc(-c6cncc(NC(=O)c7ccccc7)c6)cc45)cc23)c1 [Compound 487, N-(5-(3-(4-(3-Fluoro-5-(methylsulfonamidomethyl)phenyl)-1H-indol-2-yl)-1H-pyrazolo[3,4-c]pyridin-5-yl)pyridin-3-yl)benzamide] | 800 nM | > 10000 nM | > 10000 nM | 45.4% | 28.8% | – |
| CS(=O)(=O)NCc1cc(F)cc(-c2cccc3[nH]c(-c4n[nH]c5cnc(-c6cncnc6)cc45)cc23)c1 [Compound 503, N-(3-Fluoro-5-(2-(5-(pyrimidin-5-yl)-1H-pyrazolo[3,4-c]pyridin-3-yl)-1H-indol-4-yl)benzyl)methanesulfonamide] | 560 nM | 4000 nM | 2980 nM | – | – | – |
| Nc1cncc(-c2cc3c(-c4cc5ncccc5[nH]4)n[nH]c3cn2)c1 [Compound 507, 5-(3-(1H-Pyrrolo[3,2-b]pyridin-2-yl)-1H-pyrazolo[3,4-c]pyridin-5-yl) pyridin-3-amine] | 248 nM | 1230 nM | 404 nM | – | – | – |
| c1cnc2cc(-c3n[nH]c4cnc(-c5cncc(CNCC6CCCC6)c5)cc34)[nH]c2c1 [Compound 529, 1-(5-(3-(1H-Pyrrolo[3,2-b]pyridin-2-yl)-1H-pyrazolo[3,4-c]pyridin-5-yl)pyridin-3-yl)-N-(cyclopentylmethyl)methanamine] | 2310 nM | > 10000 nM | 999 nM | 0% | – | – |
| Fc1ccccc1-c1cccc2[nH]c(-c3n[nH]c4cnc(-c5cn[nH]c5)cc34)cc12 [Compound 567, 3-(4-(2-Fluorophenyl)-1H-indol-2-yl)-5-(1H-pyrazol-4-yl)-1H-pyrazolo[3,4-c]pyridine] | 203 nM | > 10000 nM | 438 nM | 46.1% | – | – |
| CN(C)CCOc1cncc(-c2cc3c(-c4cc5c(-c6cccnc6)cccc5[nH]4)n[nH]c3cn2)c1 [Compound 591, N,N-Dimethyl-2-((5-(3-(4-(pyridin-3-yl)-1H-indol-2-yl)-1H-pyrazolo[3,4-c]pyridin-5-yl)pyridin-3-yl)oxy)ethan-1-amine] | 2740 nM | 2780 nM | 1460 nM | – | – | – |
| Cn1cc(-c2cc3c(-c4cc5c(-c6ccncc6)cccc5[nH]4)n[nH]c3cn2)cn1 [Compound 600, 5-(1-Methyl-1H-pyrazol-4-yl)-3-(4-(pyridin-4-yl)-1H-indol-2-yl)-1H-pyrazolo[3,4-c]pyridine] | 27 nM | > 10000 nM | 44 nM | 45.1% | – | – |

More lines, main results first:

| EC50 [1] | EC50 (SW480 colon cancer cells) | EC50 (IL-6 (THP-1 cells)) | SMILES | inhibition at 10 µM (SW480 colon cancer cells) | inhibition at 10 µM (IL-6 (THP-1 cells)) | inhibition at 10 µM [1] |
| --- | --- | --- | --- | --- | --- | --- |
| > 10000 nM | > 10000 nM | 1650 nM | O=C(CC1CCNCC1)Nc1cncc(-c2cc3c(-c4cc5c(-c6ccccn6)cccc5[nH]4)n[nH]c3cn2)c1 [Compound 621, 2-(Piperidin-4-yl)-N-(5-(3-(4-(pyridin-2-yl)-1H-indol-2-yl)-1H-pyrazolo[3,4-c]pyridin-5-yl)pyridin-3-yl)acetamide] | 29.3% | – | 46.2% |
| 3840 nM | > 10000 nM | > 10000 nM | c1cc(N2CCCCC2)c2cc(-c3n[nH]c4cnc(-c5cncc(OC6CCCCC6)c5)cc34)[nH]c2c1 [Compound 635, 5-(5-(Cyclohexyloxy)pyridin-3-yl)-3-(4-(piperidin-1-yl)-1H-indol-2-yl)-1H-pyrazolo[3,4-c]pyridine] | 26.8% | 0% | – |
| 203 nM | > 10000 nM | > 10000 nM | c1cc(-c2ccoc2)c2cc(-c3n[nH]c4cnc(-c5cn[nH]c5)cc34)[nH]c2c1 [Compound 711, 3-(4-(Furan-3-yl)-1H-indol-2-yl)-5-(1H-pyrazol-4-yl)-1H-pyrazolo[3,4-c]pyridine] | 45.1% | 0% | – |
| > 10000 nM | > 10000 nM | > 10000 nM | c1csc(-c2cccc3[nH]c(-c4n[nH]c5cnc(C6CCNCC6)cc45)cc23)c1 [Compound 725, 5-(Piperidin-4-yl)-3-(4-(thiophen-2-yl)-1H-indol-2-yl)-1H-pyrazolo[3,4-c]pyridine] | 8.1% | 45.4% | 25.9% |
| 407 nM | 1070 nM | 232 nM | CN(C)CCNc1cc(F)cc(-c2cccc3[nH]c(-c4n[nH]c5cnc(-c6cncc(O)c6)cc45)cc23)c1 [Compound 817, 5-(3-(4-(3-((2-(Dimethylamino)ethyl)amino)-5-fluorophenyl)-1H-indol-2-yl)-1H-pyrazolo[3,4-c]pyridin-5-yl)pyridin-3-ol] | – | – | – |
| 47 nM | 2560 nM | 344 nM | Cn1cc(-c2cc3c(-c4cc5ncccc5[nH]4)n[nH]c3cn2)cn1 [Compound 1022, 5-(1-Methyl-1H-pyrazol-4-yl)-3-(1H-pyrrolo[3,2-b]pyridin-2-yl)-1H-pyrazolo[3,4-c]pyridine] | – | – | – |
| 3060 nM | > 10000 nM | 2450 nM | CN(C)CCOc1cncc(-c2cc3c(-c4cc5ncccc5[nH]4)n[nH]c3cn2)c1 [Compound 1029, 2-((5-(3-(1H-Pyrrolo[3,2-b]pyridin-2-yl)-1H-pyrazolo[3,4-c]pyridin-5-yl)pyridin-3-yl)oxy)-N,N-dimethylethan-1-amine] | 17.1% | – | – |
